Data published in US20200278355A1, “CONJUGATED PROTEINS AND USES THEREOF” (THE SCRIPPS RESEARCH INSTITUTE, priority 2017, published 2020).

Target: T1, NR0B1 (Homo sapiens, UniProt P51843)
T1 construct: H460 cells or H460 cells expressing luciferase in a 10 cm plate were incubated with indicated compounds; endogenous in cells; host or cells: H460 (NSCLC, KEAP1-mutant)
T1 sequence (P51843 1-470): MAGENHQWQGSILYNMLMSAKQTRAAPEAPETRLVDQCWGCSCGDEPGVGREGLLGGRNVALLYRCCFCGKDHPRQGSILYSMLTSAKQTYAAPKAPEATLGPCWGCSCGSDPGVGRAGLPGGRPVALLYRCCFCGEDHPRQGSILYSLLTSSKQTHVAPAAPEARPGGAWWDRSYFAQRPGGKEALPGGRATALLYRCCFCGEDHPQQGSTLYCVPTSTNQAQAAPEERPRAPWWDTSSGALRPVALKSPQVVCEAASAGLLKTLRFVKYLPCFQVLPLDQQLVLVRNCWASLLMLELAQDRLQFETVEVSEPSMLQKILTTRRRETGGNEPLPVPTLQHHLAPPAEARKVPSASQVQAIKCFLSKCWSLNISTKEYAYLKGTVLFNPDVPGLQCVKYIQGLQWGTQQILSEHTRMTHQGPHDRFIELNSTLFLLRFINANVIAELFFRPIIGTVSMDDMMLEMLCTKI
Assay: isoTOP-ABPP of compound-treated H460 cells: NR0B1
Format: cell-based
Settings: for receptor occupancy at 40 µM: NCI-H460, 40 μM for 3 h, read-out: target occupancy of C274 of NR0B1
Description: For analysis of NR0B1 ligands or control compound reactivity, H460 cells or H460 cells expressing luciferase in a 10 cm plate were incubated with indicated compounds in serum/dye-free RPMI for 3 hours at 37° C. Cells were washed once ice-cold PBS and lysed in 1% Triton X-100 dissolved in PBS with protease inhibitors (Sigma) by sonication. Samples were clarified by centrifugation for 10 min at 16,000×g. Lysate was adjusted to 1.5 mg ml^−1 in 500 μL.
Samples were labeled for 1 h at ambient temperature with 100 μM iodoacetamide alkyne (1, IA-alkyne, 5 μL of 10 mM stock in DMSO). Samples were conjugated by copper-catalyzed azide-alkyne cycloaddition (CuAAC) to isotopically labeled, TEV-cleavable tags (TEV-tags). Heavy CuAAC reaction mixtures was added to the DMSO-treated or shGFP control samples and light CuAAC reaction mixture was added to compound-treated or shNRF2 samples. The CuAAC reaction mixture consisted of TEV tags (light or heavy, 10 μL of 5 mM stocks in DMSO, final concentration=100 μM), 1 mM tris(2-carboxyethyl)phosphine hydrochloride (TCEP; fresh 50× stock in water, final concentration=1 mM), ligand (17× stock in DMSO:t-butanol 1:4, final concentration=100 μM) and 1 mM CuSO4 (50× stock in water, final concentration=1 mM). The samples were allowed to react for 1 h at which point the samples were centrifuged (16,000×g, 5 min, 4° C.). The resulting pellets were sonicated in ice-cold methanol (500 μL) and the resuspended light- and heavy-labeled samples were then combined pairwise and centrifuged (16,000×g, 5 min, 4° C.). The pellets were solubilized in PBS containing 1.2% SDS (1 mL) with sonication and heating (5 min, 95° C.) and any insoluble material was removed by an additional centrifugation step at ambient temperature (14,000×g, 1 min).
For each sample, 100 μL of streptavidin-agarose beads slurry (Fisher) was washed in 10 mL PBS and then resuspended in 6 mL PBS (final concentration 0.2% SDS in PBS). The SDS-solubilized proteins were added to the suspension of streptavidin-agarose beads and the bead mixture was rotated for 3 h at ambient temperature. After incubation, the beads were pelleted by centrifugation (1,400×g, 3 min) and were washed (2×10 mL PBS and 2×10 mL water).
The beads were transferred to eppendorftubes with 1 mL PBS, centrifuged (1,400×g, 3 min), and resuspended in PBS containing 6 M urea (500 μL). To this was added 10 mM DTT (25 μL of a 200 mM stock in water) and the beads were incubated at 65° C. for 15 mins. 20 mM iodoacetamide (25 μL of a 400 mM stock in water) was then added and allowed to react at 37° C. for 30 mins with shaking. The bead mixture was diluted with 900 μL PBS, pelleted by centrifugation (1,400×g, 3 min), and resuspended in PBS containing 2 M urea (200 μL). To this was added 1 mM CaCl2 (2 μL of a 200 mM stock in water) and trypsin (2 μg, Promega, sequencing grade) and the digestion was allowed to proceed overnight at 37° C. with shaking. The beads were separated from the digest with Micro Bio-Spin columns (Bio-Rad) by centrifugation (1,000×g, 1 min), washed (2×1 mL PBS and 2×1 mL water) and then transferred to fresh eppendorf tubes with 1 mL water. The washed beads were washed once further in 140 μL TEV buffer (50 mM Tris, pH 8, 0.5 mM EDTA, 1 mM DTT) and then resuspended in 140 μL TEV buffer. 5 μL TEV protease (80 μM) was added and the reactions were rotated overnight at 29° C. The TEV digest was separated from the beads with Micro Bio-Spin columns by centrifugation (1,400×g, 3 min) and the beads were washed once with water (100 μL). The samples were then acidified to a final concentration of 5% (v/v) formic acid and stored at −80° C. prior to analysis.
Samples processed for multidimensional liquid chromatography tandem mass spectrometry (MudPIT) were pressure loaded onto a 250 μm (inner diameter) fused silica capillary columns packed with C18 resin (Aqua 5 μm, Phenomenex). […]

O=C(c1ccc(N2CCOCC2)cc1)N1CCC(CN(C(=O)CCl)c2cncnc2)CC1 [BPK-9, 2-chloro-N-((1-(4-morpholinobenzoyl)piperidin-4-yl)methyl)-N-(pyrimidin-5-yl)acetamide]
engagement of C274 of NR0B1 (NSCLC cells, 40 μM, 3 h): did not engage C274

O=C(c1ccc(N2CCOCC2)cc1)N1CCCC(N(Cc2ccccc2)C(=O)CCl)CC1 (centres unmarked) [BPK-29, N-benzyl-2-chloro-N-(1-(4-morpholinobenzoyl)azepan-4-yl)acetamide]
cysteines in NR0B1 engaged among several quantified cysteines (40 μM, 3 h): the only cysteine in NR0B1 engaged | receptor occupancy at 40 µM (NSCLC cells): ~70% | BPK-29-competed isoTOP-ABPP analysis (NR0B1 C274, 40 μM): Yes (Competed defined as showing R value ≥ 3.0 at 40 μM of test compound) | relative potency of C274 engagement (NSCLC cells): superior potency compared to BPK-26 | engagement of C274 (NSCLC cells, 5 μM, 3 h): > 50%

O=C(CCl)N(Cc1cccc(Cl)c1F)c1ccc(Cl)nc1 [BPK-26, 2-chloro-N-(3-chloro-2-fluorobenzyl)-N-(6-chloropyridin-3-yl)acetamide]
cysteines in NR0B1 engaged among several quantified cysteines (40 μM, 3 h): the only cysteine in NR0B1 engaged | receptor occupancy at 40 µM (NSCLC cells): ~70%
